system: 5-LO; test: lipoxygenase inhibition: release of leukotriene B4 in polymorphonuclear human leukocytes (PMN) after addition of substances and Ca ionophore, reverse phase HPLC; type: cell-based; conditions: LTB4 release
Description: The pharmacological effects of the substances according to the invention are determined by the following method:
As a measure of the lipoxygenase inhibition, the release of leukotriene B4 (LTB.) in polymorphonuclear human leukocytes (PMN) was determined by addition of substances and Ca ionophore by means of reverse phase HPLC according to Borgeat, P. et al., Proc. Nat. Acad. Sci, 76, 2148-2152 (1979).
Table 1 lists by way of example the values obtained by this test for some compounds according to the invention: […]

| IC50 | SMILES |
| --- | --- |
| 500 nM | O=C(Nc1ccccn1)C(c1ccc(OCc2ccc3ccccc3n2)cc1)C1CCCCCC1 (stereo not shown) [Example 1, N-(2-Pyridyl)-2-[4-(quinolin-2-yl-methoxy)phenyl]-2-cycloheptyl-acetamide] |
| 260 nM | O=C(Nc1nnn[nH]1)C(c1ccc(OCc2ccc3ccccc3n2)cc1)C1CCCCCC1 (stereo not shown) [Example 2, N-(5-Tetrazolyl)-2-[4-(quinoline-2-yl-methoxy)phenyl]-2-cycloheptyl-acetamide] |
| 290 nM | O=C(NC1=NCCS1)C(c1ccc(OCc2ccc3ccccc3n2)cc1)C1CCCCCC1 (stereo not shown) [Example 3, N-(2-Thiazolinyl)-2-[4-(quinolin-2-yl-methoxy)phenyl]-2-cycloheptyl-acetamide] |
| 430 nM | O=C(Nc1nccs1)C(c1ccc(OCc2ccc3ccccc3n2)cc1)C1CCCCCC1 (stereo not shown) [Example 4, N-(2-Thiazolyl)-2-[4-(quinolin-2-yl-methoxy)phenyl]-2-cycloheptyl-acetamide] |

Reference: patent US5266578A, “Heterocyclically substituted quinolylmethoxy-phenylacetamides” (Bayer Aktiengesellschaft, priority 1991, dated 1993)
